According to ChEMBL document CHEMBL3885861, “Open TG-GATES”:

Species: Rattus norvegicus
Assay: Open TG-GATES - Regimen: Daily Repeat
Assay type: toxicity, organism-based, Sprague-Dawley
Design: regimen Daily Repeat, gender Male, age 6 weeks
Conditions: in vivo, po, 0 mg/kg, route gavage, dose level Control; for APTT / Bas / Eos / Fbg / Hb / Ht / Lym / MCH / MCHC / MCV / Mono / Neu / PT / Plat / RBC / Ret / WBC: tissue Blood; for KIDNEY_L / KIDNEY_R / KIDNEY_TOTAL: tissue Kidney; for LIVER: tissue Liver; for A/G / ALP / ALT / AST / BUN / CRE / Ca / Cl / DBIL / GLC / IP / K / LDH / Na / PL / RALB / TBIL / TC / TG / TP / gamma-GTP: tissue Plasma

Work on `O=C(O)c1ccccc1Nc1ccccc1` [FENAMIC ACID] yielded a TERMINAL_BW (72 h, time 3 day) of 237 g, an APTT (72 h, time 3 day) of 16.2 s and a Bas (72 h, time 3 day) of 0.4%. It also gave an Eos (72 h, time 3 day) of 1.2%, a Fbg (72 h, time 3 day) of 270.2 mg/dL and a Hb (72 h, time 3 day) of 13.9 g/dL. The Ht (72 h, time 3 day) was 41.7%, the Lym (72 h, time 3 day) was 75.2% and the MCH (72 h, time 3 day) was 20.9 pg. It also gave an MCHC (72 h, time 3 day) of 33.3%, an MCV (72 h, time 3 day) of 62.7 fL and a Mono (72 h, time 3 day) of 2.6%. The Neu (72 h, time 3 day) was 20.6%, the PT (72 h, time 3 day) was 14.3 s and the Plat (72 h, time 3 day) was 121.2 x10_4/uL. The RBC (72 h, time 3 day) was 664.6 x10_4/ul, the Ret (72 h, time 3 day) was 6.5% and the WBC (72 h, time 3 day) was 95.3 x10_2/uL. The KIDNEY_L (72 h, time 3 day) was 1 g, the KIDNEY_R (72 h, time 3 day) was 1 g and the KIDNEY_TOTAL (72 h, time 3 day) was 2 g. The LIVER (72 h, time 3 day) was 10.9 g, the A/G (72 h, time 3 day) was 0.9 and the ALP (72 h, time 3 day) was 1663.4 IU/L. For the same compound, the ALT (72 h, time 3 day) was 35.4 IU/L, the AST (72 h, time 3 day) was 63.4 IU/L and the BUN (72 h, time 3 day) was 13.2 mg/dL. It also gave a CRE (72 h, time 3 day) of 0.2 mg/dL, a Ca (72 h, time 3 day) of 11.6 mg/dL and a Cl (72 h, time 3 day) of 106.8 meq/L. The DBIL (72 h, time 3 day) was 0.01 mg/dL, the GLC (72 h, time 3 day) was 185.8 mg/dL and the IP (72 h, time 3 day) was 7.2 mg/dL. It also gave a K (72 h, time 3 day) of 4.3 meq/L, an LDH (72 h, time 3 day) of 97.8 IU/L and a Na (72 h, time 3 day) of 143.8 meq/L. It also gave a PL (72 h, time 3 day) of 147.4 mg/dL, an RALB (72 h, time 3 day) of 2.7 g/dL and a TBIL (72 h, time 3 day) of 0.044 mg/dL. It also gave a TC (72 h, time 3 day) of 73.4 mg/dL, a TG (72 h, time 3 day) of 91.8 mg/dL and a TP (72 h, time 3 day) of 5.7 g/dL. The gamma-GTP (72 h, time 3 day) was 1.6 IU/L, the TERMINAL_BW ([…], time 7 day) was 271.7 g and the TERMINAL_BW ([…], time 14 day) was 334.6 g. For the same compound, the TERMINAL_BW ([…], time 28 day) was 425.8 g, the APTT ([…], time 7 day) was 16.2 s and the Bas ([…], time 7 day) was 0.8%. For the same compound, the Eos ([…], time 7 day) was 1%, the Fbg ([…], time 7 day) was 278.2 mg/dL and the Hb ([…], time 7 day) was 13.5 g/dL. For the same compound, the Ht ([…], time 7 day) was 40.3%, the Lym ([…], time 7 day) was 80.2% and the MCH ([…], time 7 day) was 20.5 pg. For the same compound, the MCHC ([…], time 7 day) was 33.5%, the MCV ([…], time 7 day) was 61 fL and the Mono ([…], time 7 day) was 2.2%. The Neu ([…], time 7 day) was 15.6%, the PT ([…], time 7 day) was 13.8 s and the Plat ([…], time 7 day) was 118.4 x10_4/uL. It also gave an RBC ([…], time 7 day) of 661.2 x10_4/ul, a Ret ([…], time 7 day) of 5.4% and a WBC ([…], time 7 day) of 84.5 x10_2/uL. For the same compound, the APTT ([…], time 14 day) was 16.3 s, the Bas ([…], time 14 day) was 0.4% and the Eos ([…], time 14 day) was 1%. It also gave a Fbg ([…], time 14 day) of 296.2 mg/dL, a Hb ([…], time 14 day) of 14.5 g/dL and a Ht ([…], time 14 day) of 42.3%. The Lym ([…], time 14 day) was 82.6%, the MCH ([…], time 14 day) was 20.2 pg and the MCHC ([…], time 14 day) was 34.2%. It also gave an MCV ([…], time 14 day) of 59.2 fL, a Mono ([…], time 14 day) of 1.8% and a Neu ([…], time 14 day) of 14.2%. It also gave a PT ([…], time 14 day) of 14.1 s, a Plat ([…], time 14 day) of 112.2 x10_4/uL and an RBC ([…], time 14 day) of 714.8 x10_4/ul. The Ret ([…], time 14 day) was 4%, the WBC ([…], time 14 day) was 73.8 x10_2/uL and the APTT ([…], time 28 day) was 15.8 s. For the same compound, the Bas ([…], time 28 day) was 0.2%, the Eos ([…], time 28 day) was 1% and the Fbg ([…], time 28 day) was 296 mg/dL. It also gave a Hb ([…], time 28 day) of 14.9 g/dL, a Ht ([…], time 28 day) of 43% and a Lym ([…], time 28 day) of 79.2%. It also gave an MCH ([…], time 28 day) of 19.4 pg, an MCHC ([…], time 28 day) of 34.6% and an MCV ([…], time 28 day) of 55.9 fL. The Mono ([…], time 28 day) was 1.6%, the Neu ([…], time 28 day) was 17.2% and the PT ([…], time 28 day) was 14.2 s. It also gave a Plat ([…], time 28 day) of 104.1 x10_4/uL, an RBC ([…], time 28 day) of 768.8 x10_4/ul and a Ret ([…], time 28 day) of 2.7%. For the same compound, the WBC ([…], time 28 day) was 92.6 x10_2/uL, the KIDNEY_L ([…], time 7 day) was 1.1 g and the KIDNEY_R ([…], time 7 day) was 1.1 g. For the same compound, the KIDNEY_TOTAL ([…], time 7 day) was 2.2 g, the KIDNEY_L ([…], time 14 day) was 1.3 g and the KIDNEY_R ([…], time 14 day) was 1.3 g. The KIDNEY_TOTAL ([…], time 14 day) was 2.5 g, the KIDNEY_L ([…], time 28 day) was 1.5 g and the KIDNEY_R ([…], time 28 day) was 1.5 g. For the same compound, the KIDNEY_TOTAL ([…], time 28 day) was 2.9 g, the LIVER ([…], time 7 day) was 12.7 g and the LIVER ([…], time 14 day) was 14.7 g. The LIVER ([…], time 28 day) was 17 g, the A/G ([…], time 7 day) was 0.9 and the ALP ([…], time 7 day) was 1493 IU/L. It also gave an ALT ([…], time 7 day) of 38 IU/L, an AST ([…], time 7 day) of 68.4 IU/L and a BUN ([…], time 7 day) of 14.2 mg/dL. For the same compound, the CRE ([…], time 7 day) was 0.2 mg/dL, the Ca ([…], time 7 day) was 11.4 mg/dL and the Cl ([…], time 7 day) was 106.2 meq/L. For the same compound, the DBIL ([…], time 7 day) was 0.01 mg/dL, the GLC ([…], time 7 day) was 190.4 mg/dL and the IP ([…], time 7 day) was 6.7 mg/dL. For the same compound, the K ([…], time 7 day) was 4.3 meq/L, the LDH ([…], time 7 day) was 105 IU/L and the Na ([…], time 7 day) was 143.2 meq/L. For the same compound, the PL ([…], time 7 day) was 148.4 mg/dL, the RALB ([…], time 7 day) was 2.6 g/dL and the TBIL ([…], time 7 day) was 0.03 mg/dL. The TC ([…], time 7 day) was 73 mg/dL, the TG ([…], time 7 day) was 119.4 mg/dL and the TP ([…], time 7 day) was 5.7 g/dL. The gamma-GTP ([…], time 7 day) was 1 IU/L, the A/G ([…], time 14 day) was 0.8 and the ALP ([…], time 14 day) was 1698.4 IU/L. It also gave an ALT ([…], time 14 day) of 36 IU/L, an AST ([…], time 14 day) of 63.2 IU/L and a BUN ([…], time 14 day) of 13.8 mg/dL. The CRE ([…], time 14 day) was 0.3 mg/dL, the Ca ([…], time 14 day) was 11.2 mg/dL and the Cl ([…], time 14 day) was 105.2 meq/L. It also gave a DBIL ([…], time 14 day) of 0.004 mg/dL, a GLC ([…], time 14 day) of 184 mg/dL and an IP ([…], time 14 day) of 7.1 mg/dL. For the same compound, the K ([…], time 14 day) was 4 meq/L, the LDH ([…], time 14 day) was 78.2 IU/L and the Na ([…], time 14 day) was 144 meq/L. For the same compound, the PL ([…], time 14 day) was 143.2 mg/dL, the RALB ([…], time 14 day) was 2.7 g/dL and the TBIL ([…], time 14 day) was 0.032 mg/dL. For the same compound, the TC ([…], time 14 day) was 68.6 mg/dL, the TG ([…], time 14 day) was 108.6 mg/dL and the TP ([…], time 14 day) was 5.9 g/dL. It also gave a gamma-GTP ([…], time 14 day) of 1 IU/L, an A/G ([…], time 28 day) of 0.8 and an ALP ([…], time 28 day) of 1171.8 IU/L. It also gave an ALT ([…], time 28 day) of 32.4 IU/L, an AST ([…], time 28 day) of 58.2 IU/L and a BUN ([…], time 28 day) of 14.8 mg/dL. For the same compound, the CRE ([…], time 28 day) was 0.3 mg/dL, the Ca ([…], time 28 day) was 11.1 mg/dL and the Cl ([…], time 28 day) was 105.2 meq/L. It also gave a DBIL ([…], time 28 day) of 0.006 mg/dL, a GLC ([…], time 28 day) of 192.8 mg/dL and an IP ([…], time 28 day) of 6.9 mg/dL. It also gave a K ([…], time 28 day) of 4 meq/L, an LDH ([…], time 28 day) of 104 IU/L and a Na ([…], time 28 day) of 144.4 meq/L. The PL ([…], time 28 day) was 133.8 mg/dL.
